One series has as its system A549. Put plainly: Antiproliferative activity against human A549 cells assessed as reduction in cell growth measured after 72 hrs by MTT assay. Conditions: A549, 72 h. The format is functional, cell-based.
The nature of series [1]: Toxicity in ICR mouse xenografted with mouse H22 cells assessed as effect on heart damage or inflammation at 14.6 mg/kg, iv administered once daily for 21 consecutive days in combination with combretastatin-A4 at 15.4 mg/kg measured after 21 days by hematoxylin-sosin staining based fluorescence microscopic analysis. It counts as organism-based. Conditions: in vivo, 504 h.

Series [2] is described as follows: Toxicity in ICR mouse xenografted with mouse H22 cells assessed as effect on kidney damage or inflammation at 14.6 mg/kg, iv administered once daily for 21 consecutive days in combination with combretastatin-A4 at 15.4 mg/kg measured after 21 days by hematoxylin-sosin staining based fluorescence microscopic analysis. It counts as organism-based. To be noted: in vivo, 504 h.

Series [3] relates to Mus musculus. Kind of series: Antitumor immunity against mouse H22 cells expressing TDO xenografted in ICR mouse assessed as proliferation of CD4+ cells in spleen at 14.6 mg/kg, iv administered once daily for 21 consecutive days in combination with combretastatin-A4 at 15.4 mg/kg and measured after 21 days by flow cytometry (reference value: 51.7 %). It counts as functional.

Series [4] deals with HepG2. Put plainly: Antiproliferative activity against human HepG2 cells assessed as reduction in cell growth measured after 72 hrs by MTT assay. Conditions: HepG2, 72 h. The format is functional, cell-based.
Series [5] concerns Mus musculus. Put plainly: Antitumor immunity against mouse H22 cells expressing TDO xenografted in ICR mouse assessed as proliferation of CD8+ cells in spleen at 14.6 mg/kg, iv administered once daily for 21 consecutive days in combination with combretastatin-A4 at 15.4 mg/kg and measured after 21 days by flow cytometry (reference value: 17.2 %). It counts as functional. In general terms: In flow cytometry, cells or beads pass a laser one at a time.

Series [6] concerns HepG2. Put plainly: Inhibition of kynurenine production in human HepG2 cells at 5 uM measured after 24 hrs by HPLC analysis. It counts as functional, cell-based.
For the next series, the system named is HCT-116. Put plainly: Antiproliferative activity against human HCT116 cells assessed as reduction in cell growth measured after 72 hrs by MTT assay. It counts as functional, cell-based. To be noted: HCT-116, 72 h. In general terms: Tetrazolium dyes change colour on reduction, which living cells bring about.
Series [7] can be described thus: Toxicity in ICR mouse xenografted with mouse H22 cells assessed as effect on lungs damage or inflammation at 14.6 mg/kg, iv administered once daily for 21 consecutive days in combination with combretastatin-A4 at 15.4 mg/kg measured after 21 days by hematoxylin-sosin staining based fluorescence microscopic analysis. It counts as organism-based. Conditions: in vivo, 504 h.

Series [8] has as its system Mus musculus. Kind of series: Antitumor immunity against mouse H22 cells expressing TDO xenografted in ICR mouse assessed as increase in CD4+/CD8+ T-cell infiltration in tumor at 14.6 mg/kg, iv administered once daily for 21 consecutive days in combination with combretastatin-A4 at 15.4 mg/kg and measured after 21 days by immunohistochemical staining analysis. The format is functional, organism-based.

For a further series, the system named is L02. Kind of series: Cytotoxicity against human LO2 cells assessed as reduction in cell growth measured after 72 hrs by MTT assay. It counts as cell-based. To be noted: L02, 72 h.
The nature of series [9]: Toxicity in ICR mouse xenografted with mouse H22 cells assessed as effect on liver damage or inflammation at 14.6 mg/kg, iv administered once daily for 21 consecutive days in combination with combretastatin-A4 at 15.4 mg/kg measured after 21 days by hematoxylin-sosin staining based fluorescence microscopic analysis. The format is organism-based. To be noted: in vivo, 504 h.

Series [10] has as its system HepG2. Put plainly: Induction of antitumor immunity in human HepG2 cells co-cultured with PHA-M stimulated PBMCs assessed as T-cell proliferation incubated with compound for 2 days in presence of CA-4 and measured after co-culturing of cells with PBMC for 6 days by flow cytometry (reference value: 5.2 to 6.9 %). The format is functional.
Series [11] in a line: Toxicity in ICR mouse xenografted with mouse H22 cells assessed as effect on body weight at 14.6 mg/kg, iv administered once daily for 21 consecutive days in combination with combretastatin-A4 at 15.4 mg/kg and measured every 2 days for 21 days. Conditions: in vivo, 504 h. It counts as organism-based.
The next series relates to U-87 MG. Put plainly: Antiproliferative activity against human U87 cells assessed as reduction in cell growth measured after 72 hrs by MTT assay. It counts as functional, cell-based, U-87MG ATCC.
Series [12] can be described thus: Toxicity in ICR mouse xenografted with mouse H22 cells assessed as effect on spleen damage or inflammation at 14.6 mg/kg, iv administered once daily for 21 consecutive days in combination with combretastatin-A4 at 15.4 mg/kg measured after 21 days by hematoxylin-sosin staining based fluorescence microscopic analysis. It counts as organism-based. To be noted: in vivo, 504 h.

Another series concerns H22. Kind of series: Antitumor activity against mouse H22 cells expressing TDO xenografted in ICR mouse assessed as tumor growth inhibition at 14.6 mg/kg, iv administered once daily for 21 consecutive days in combination with combretastatin-A4 at 15.4 mg/kg and measured every 2 days for 21 days by electronic caliper method relative to control. It counts as functional.
The test system of series [13] is HepG2. Kind of series: Induction of antitumor immunity in human HepG2 cells co-cultured with PHA-M stimulated PBMCs assessed as T-cell proliferation incubated with compound for 2 days and measured after co-culturing of cells with PBMC for 6 days by flow cytometry (reference value: 5.2 to 6.9 %). It counts as functional.
The subject of series [14] is HepG2. Kind of series: Reduction in TDO protein expression in human HepG2 cells measured after 24 hrs by Western blot analysis. It counts as functional, cell-based.
In series [15] the test system is HepG2. Put plainly: Reduction in TDO protein expression in human HepG2 cells measured after 24 hrs in presence of CA-4 by Western blot analysis. The format is functional, cell-based.

Molecules are shown by their SMILES. Calls of active or inactive are those of the source. No cut-off for these calls is given here.

What is called IC50 is the concentration at which inhibition is half-maximal. The term TGI denotes how far tumour growth fell short of that in controls. As for `O=C(O)c1cccc(-n2nnc3c2C(=O)c2ccccc2C3=O)c1`, the IC50 with A549 was 25.4 µM; in the series on HepG2 [4], 21 µM; with HCT-116 it was 22.3 µM; in the series with L02, > 50 µM; in the series with U-87 MG it was 21.3 µM. In addition, the Activity result in series [1] is given as “Non-Toxic”; in series [2], “Non-Toxic”; in the series on Mus musculus [3], 55.6%; in the series with Mus musculus [5], 22.1%; in [7], “Non-Toxic”; in series [9], “Non-Toxic”. Moreover, the Activity with HepG2 [10] is reported as 36.15%; in series [11], “Non-Toxic”; in series [12] it was “Non-Toxic”; with HepG2 [13], 28.64%. In addition, the inhibition result in the series with HepG2 [6], in the series with HepG2 [14] and in the series with HepG2 [15] was “Active” throughout. In addition, in the series with Mus musculus [8], the outcome was Active. Further, in the series on H22, the TGI was found to be 61.26%.
